Data published in patent US20030199671A1, “Binding molecules for Fc-region polypeptides” (priority 2001, published 2003).
Positions of bridges follow the written chain, without caps; N, C: chain ends. Residues, ends and D or L forms follow the SMILES beside them.

How the values were obtained:
[1] = test system: human IgG; assay: Dynamic (mini-column) binding capacity
Procedure: (§1) These media were used to determine the effect of ligand density on human IgG binding capacity in both static (filterplate) and dynamic (mini-column) modes with commercial immobilized recombinant Protein A (Repligen, IPA400) at a single density as control.
The IgG solution was loaded onto the column at a flow rate of 0.2 ml/minute (170 cm/hr). […] At the end of the loading period, the column was washed with PBS until the absorbance at 280 nm of the column eluant returned to baseline. […] Neutralizing the pH of the eluted fractions was unnecessary since the total IgG eluted was determined by total protein absorbance at 280 nm.
To establish total media capacities, IgG was loaded onto the columns until the absorbances of the column load and flow through streams were identical (loading to full capacity). After washing the column to baseline, bound IgG was eluted and the total amount captured from this elution fraction determined. The total capacity of the media (mg IgG/ml media) as total IgG captured divided by the column bed volume was calculated.
Additionally, column capacities at 10% breakthrough were calculated from the online A280 measurements of column flowthrough streams. The A280 curves obtained for the column of interest and for an equivalent “blank” column containing hydrolyzed Sepharose FF 4 media were aligned. The difference in areas between these curves (for a retained and non-retained target) from the time of injection to the time at which the A280 value for the column of interest had risen to 10% of the maximum A280 absorbance (100%) obtained for the load solution at 100% IgG capture saturation (10% breakthrough) was graphically integrated. A standard curve was used to relate the integrated area to mg IgG bound and capacity calculated as total IgG bound divided by column bed volume.

[2] = test system: human IgG; assay: Static (filterplate) binding capacity
Procedure: as §1, with “control. Actual ligand densities obtained ranged from 0.17 to 3.2 μmole/ml media as confirmed by quantitative amino acid analysis.” for “control.”
After incubation of the samples, with shaking, at room temperature for one hour, the supernatant liquid from each well, containing unbound IgG, was collected by centrifugation into the cognate well of a collection plate. The assay plate was washed three times with PBST (200 μl/wash) and bound IgG was eluted from the media samples by incubation for 30-60 minutes at room temperature in 100 μl Elution Buffer (100 mM CAPS, pH 11.5). Eluates were collected by centrifugation for analysis. Protein concentrations were determined from A280 measurements and plotted as a function of mg human IgG bound per ml resin vs. mg human IgG applied per ml resin.
The amount of IgG captured (estimated from IgG recovered in the elution step) by the various media is dependent upon both the IgG concentration and the ligand density. […] Under these static conditions, where both ligand and target concentrations are close to KD values, equilibrium binding is established and total capacities cannot be accurately determined. However, over the IgG range of 0 to 25 mg IgG applied per ml resin (0 to 2.5 mg/ml target added to 10 μl of resin), capture of IgG is linear. Beyond this point, up to a level of 200 mg IgG applied per ml resin, saturation becomes more pronounced.

[3] = target: Fc (mixture of human plasma IgG isoforms); assay: Fluorescence anisotropy binding, fluorescein-labeled peptide; settings: pH 8.0, 0.05 M Tris-HCl, 0.2 M NaCl
Outline: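 Fluorescence anisotropy with fluorescein-labeled peptide (20 nM or 2 nM) titrated with human plasma IgG isoform or mixed-IgG Fc target. Fc buffer 50 mM Tris-HCl, 200 mM NaCl, pH 8.0, 0.01% Tween 20; IgG buffer PBS, 0.01% Tween 20. Equilibrated 10 minutes at 30° C before polarization read.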

[4] = target: T1, human plasma IgG4 (Homo sapiens, UniProt P01861); assay: as above
T1 construct: the individual human plasma IgG isoforms: IgG1, IgG2, IgG3, or IgG4; purchased Calbiochem; host or cells: human plasma

[5] = target: T2, human plasma IgG3 (Homo sapiens, UniProt P01860); assay: as above
T2 construct: the individual human plasma IgG isoforms: IgG1, IgG2, IgG3, or IgG4; purchased Calbiochem; host or cells: human plasma

[6] = pH 9.3, 0.01 M sodium bicarbonate

T2 sequence (P01860 1-377 isoform P01860-1): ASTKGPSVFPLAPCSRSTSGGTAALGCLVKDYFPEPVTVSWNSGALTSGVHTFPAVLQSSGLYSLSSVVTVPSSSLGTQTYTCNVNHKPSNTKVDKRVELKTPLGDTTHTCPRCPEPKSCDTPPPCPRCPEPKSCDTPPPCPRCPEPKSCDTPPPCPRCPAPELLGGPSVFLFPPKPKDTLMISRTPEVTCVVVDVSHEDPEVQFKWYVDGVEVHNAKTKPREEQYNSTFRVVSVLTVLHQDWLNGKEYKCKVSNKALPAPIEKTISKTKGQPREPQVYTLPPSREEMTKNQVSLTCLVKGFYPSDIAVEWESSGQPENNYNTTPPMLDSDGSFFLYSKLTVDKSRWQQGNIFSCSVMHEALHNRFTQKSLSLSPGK
T1 sequence (P01861 1-327 isoform P01861-1): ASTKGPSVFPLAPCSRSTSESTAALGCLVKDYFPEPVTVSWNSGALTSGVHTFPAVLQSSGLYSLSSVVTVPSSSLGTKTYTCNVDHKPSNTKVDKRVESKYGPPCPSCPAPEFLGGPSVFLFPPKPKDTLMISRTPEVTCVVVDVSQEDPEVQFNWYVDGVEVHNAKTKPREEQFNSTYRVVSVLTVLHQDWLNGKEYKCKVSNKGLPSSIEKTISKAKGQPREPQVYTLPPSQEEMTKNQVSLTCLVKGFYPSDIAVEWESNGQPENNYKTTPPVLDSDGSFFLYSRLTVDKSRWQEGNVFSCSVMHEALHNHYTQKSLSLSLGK

CC[C@H](C)[C@@H]1NC(=O)[C@H](CC(C)C)NC(=O)[C@H](CCC(=O)O)NC(=O)CNC(=O)[C@H](Cc2c[nH]c3ccccc23)NC(=O)[C@H]([C@@H](C)O)NC(=O)[C@H]([C@@H](C)O)NC(=O)[C@H](Cc2ccc(O)cc2)NC(=O)[C@H](C(C)C)NC(=O)[C@@H](NC(=O)[C@H](CCSC)NC(=O)[C@H](Cc2c[nH]cn2)NC(=O)[C@H](CC(=O)O)NC(=O)[C@H](CC(=O)O)NC(=O)CNC(C)=O)CSSC[C@@H](C(=O)N[C@@H](CC(=O)O)C(=O)N[C@@H](CC(N)=O)C(=O)N[C@@H](Cc2c[nH]cn2)C(=O)N[C@@H](CCC(=O)O)C(=O)N2CCC[C@H]2C(=O)NCC(=O)N2CCC[C@H]2C(=O)N[C@@H](CCC(=O)O)C(=O)NCC(=O)NCC(=O)NCC(=O)N[C@@H](CCCCN)C(N)=O)NC(=O)[C@H](Cc2c[nH]c3ccccc23)NC1=O [DX249] (Ac-GDDHMCVYTTWGELIWCDNHEPGPEGGGK-NH2; disulfide 6-17)
Capacity (mg IgG/mL resin) 10% Breakthrough ([1]; Ligand Density 0.19 μM/mL): 1.1 mg IgG/mL resin | Capacity (mg IgG/mL resin) Total Dynamic ([1]; Ligand Density 0.19 μM/mL): 1.2 mg IgG/mL resin | Capacity (mg IgG/mL resin) 10% Breakthrough ([1]; Ligand Density 0.86 μM/mL): 4.4 mg IgG/mL resin | Capacity (mg IgG/mL resin) Total Dynamic ([1]; Ligand Density 0.86 μM/mL): 8.4 mg IgG/mL resin | Capacity (mg IgG/mL resin) 10% Breakthrough ([1]; Ligand Density 1.63 μM/mL): 5.9 mg IgG/mL resin | Capacity (mg IgG/mL resin) Total Dynamic ([1]; Ligand Density 1.63 μM/mL): 10.3 mg IgG/mL resin | Capacity (mg IgG/mL resin) 10% Breakthrough ([1]; Ligand Density 3.20 μM/mL): 5.5 mg IgG/mL resin | Capacity (mg IgG/mL resin) Total Dynamic ([1]; Ligand Density 3.20 μM/mL): 16.4 mg IgG/mL resin | Dynamic Cap. ([1]; Table 18, total dynamic capacity, average ligand density 1.9 μmole/ml): 13 mg/mL | Capacity (mg IgG/mL resin) Static ([2]; Ligand Density 0.19 μM/mL): 1.2 mg IgG/mL resin | Capacity (mg IgG/mL resin) Static ([2]; Ligand Density 0.86 μM/mL): 9.5 mg IgG/mL resin | Capacity (mg IgG/mL resin) Static ([2]; Ligand Density 1.63 μM/mL): 15.4 mg IgG/mL resin | Capacity (mg IgG/mL resin) Static ([2]; Ligand Density 3.20 μM/mL): 19.0 mg IgG/mL resin | Static Cap. ([2]; Table 18, 25 mg human IgG applied per ml resin, average ligand density 1.9 μmole/ml): 24 mg/mL | Kd [3]: 2.5 ± 0.5 µM | Kd ([4]; pH 7.4, 0.01 M Tris-HCl): 1.9 ± 0.4 µM | Kd ([4]; pH 7.4, PBS, […] NaCl): 1.9 ± 1.2 µM | Kd [4, 6]: > 10 µM | Kd ([5]; pH 5.7, 0.01 M Tris-acetate): > 10 µM | Kd ([5]; pH 7.4, 0.01 M Tris-HCl): > 10 µM | Kd ([5]; pH 7.4, PBS, […] NaCl): > 10 µM | Kd [5, 6]: > 10 µM

CC(=O)NCC(=O)N[C@@H](CC(=O)O)C(=O)N[C@@H](CC(=O)O)C(=O)N[C@@H](CC(=O)O)C(=O)N[C@@H](Cc1c[nH]cn1)C(=O)N[C@H]1CSSC[C@@H](C(=O)N2CCC[C@H]2C(=O)N[C@@H](Cc2c[nH]cn2)C(=O)NCC(=O)N[C@@H](CCC(=O)O)C(=O)N2CCC[C@H]2C(=O)NCC(=O)N2CCC[C@H]2C(=O)N[C@@H](CCC(=O)O)C(=O)NCC(=O)NCC(=O)NCC(=O)N[C@@H](CCCCN)C(N)=O)NC(=O)[C@H](CCC(=O)O)NC(=O)[C@H](CO)NC(=O)[C@H](CC(N)=O)NC(=O)[C@H](Cc2ccccc2)NC(=O)[C@H](Cc2c[nH]c3ccccc23)NC(=O)[C@H](CCC(=O)O)NC(=O)[C@H](CCCNC(=N)N)NC(=O)[C@H](Cc2ccccc2)NC(=O)[C@H](Cc2c[nH]c3ccccc23)NC(=O)[C@H](Cc2ccc(O)cc2)NC1=O [DX252] (Ac-GDDDHCYWFREWFNSECPHGEPGPEGGGK-NH2; disulfide 6-17 (inferred))
Kd [3]: 5.1 ± 3 µM | Kd ([4]; pH 5.7, 0.01 M Tris-acetate): > 10 µM | Kd ([4]; pH 7.4, 0.01 M Tris-HCl): 2.1 to 3.4 µM | Kd ([4]; pH 7.4, PBS, […] NaCl): > 10 µM | Kd [4, 6]: > 10 µM | Kd ([5]; pH 5.7, 0.01 M Tris-acetate): < 0.1 µM | Kd ([5]; pH 7.4, 0.01 M Tris-HCl): 2.1 to 3.4 µM | Kd [5, 6]: > 10 µM

Ac-GDRRACSRDWSGALVWCAGHEPGPEGGGK-NH2 (not fully specified (bridges); printed as Ac-GDRRACSRDWSGALVWCAGHEPGPEGGGK-NH2; cysteine pairing not given here) [DX253]
Capacity (mg IgG/mL resin) 10% Breakthrough ([1]; Ligand Density 0.17 μM/mL): 0.1 mg IgG/mL resin | Capacity (mg IgG/mL resin) Total Dynamic ([1]; Ligand Density 0.17 μM/mL): 0.6 mg IgG/mL resin | Capacity (mg IgG/mL resin) 10% Breakthrough ([1]; Ligand Density 0.84 μM/mL): 2.6 mg IgG/mL resin | Capacity (mg IgG/mL resin) Total Dynamic ([1]; Ligand Density 0.84 μM/mL): 5.8 mg IgG/mL resin | Capacity (mg IgG/mL resin) 10% Breakthrough ([1]; Ligand Density 1.45 μM/mL): 2.9 mg IgG/mL resin | Capacity (mg IgG/mL resin) Total Dynamic ([1]; Ligand Density 1.45 μM/mL): 6.4 mg IgG/mL resin | Capacity (mg IgG/mL resin) 10% Breakthrough ([1]; Ligand Density 2.75 μM/mL): 8.5 mg IgG/mL resin | Capacity (mg IgG/mL resin) Total Dynamic ([1]; Ligand Density 2.75 μM/mL): 24.1 mg IgG/mL resin | Capacity (mg IgG/mL resin) Static ([2]; Ligand Density 0.17 μM/mL): 1.1 mg IgG/mL resin | Capacity (mg IgG/mL resin) Static ([2]; Ligand Density 0.84 μM/mL): 8.5 mg IgG/mL resin | Capacity (mg IgG/mL resin) Static ([2]; Ligand Density 1.45 μM/mL): 13.5 mg IgG/mL resin | Capacity (mg IgG/mL resin) Static ([2]; Ligand Density 2.75 μM/mL): 17.4 mg IgG/mL resin

Prot. A: immobilized recombinant Protein A (RepliGen Corp., product no. IPA-400), positive control [reference compound]
Capacity at 10% breakthrough as % of total dynamic capacity [1]: about 75% | Capacity (mg IgG/mL resin) 10% Breakthrough ([1]; Ligand Density not determined): 12.9 mg IgG/mL resin | Capacity (mg IgG/mL resin) Total Dynamic ([1]; Ligand Density not determined): 16.3 mg IgG/mL resin | Capacity (mg IgG/mL resin) Static ([2]; Ligand Density not determined): 11.1 mg IgG/mL resin
